Usually melting point stands for the temperature, or range, at which the solid turns liquid.

For one compound, melting point results are on record in US20020115669A1 (published 2002).

Structures are written as SMILES.

`CC(=O)NC[C@H]1CN(c2ccc(/C=C(\Br)c3ccc(C(C)=O)s3)c(F)c2)C(=O)O1`: the melting point was 187 to 190 °C (dec.).
